Source: patent publication US11608338B2, “Imidazolonylquinolines and the use thereof as ATM kinase inhibitors” (priority 2015, dated 2023)

Tests used:
[1] = biological target: human recombinant ATM (ataxia telangiectasia mutated) kinase (Homo sapiens (Human), UniProt Q13315); experiment: ATM kinase assay, determination of ATM inhibition (IC50 ATM), TR-FRET; format: biochemical; conditions: 10 μM ATP, p53 substrate
Description: ATM Kinase Assay—Determination of ATM Inhibition (IC50 ATM):
The IC50 value was determined with the aid of a biochemical ATM kinase assay. The assay consists of two steps: the enzymatic reaction and the detection step. Firstly, ATM (ataxia telangiectasia mutated) protein and the test substance are incubated at different concentrations with addition of substrate protein p53 and ATP. ATM mediates the phosphorylation of p53 at several positions, including at amino acid S15. The amount of phosphorylated p53 is determined with the aid of specific antibodies and the TR-FRET technique. The enzymatic ATM assay is carried out as TR-FRET (HTRF™, Cisbio Bioassays) based 384-well assay. In the first step, purified human recombinant ATM (human ATM, full length, GenBank ID NM_000051, expressed in a mammal cell line) is incubated in assay buffer for 15 minutes with the ATM inhibitor in various concentrations and without test substance as negative or neutral control. The assay buffer comprises 25 mM HEPES pH 8.0, 10 mM Mg(CH3COO)2, 1 mM MnCl2, 0.1% BSA and 0.01% Brij® 35, 5 mM dithiothreitol (DTT). […] After incubation, usually for 2 hours (between 1.5 and 15 h), for signal development, the plates are analysed in a plate reader (EnVision, PerkinElmer) using TRF mode (and with laser excitation). […]

[2] = test system: phosphorylation of CHK2 (Thr68) in HCT116 cells; experiment: Cellular pCHK2 assay, bleomycin-induced phosphorylation of CHK2 (phospho-Thr68), immunofluorescence high content; format: cell-based, human; conditions: 10 μM bleomycin, 4 h
Text: For the identification of substances which inhibit the phosphorylation of the protein kinase CHK2 at the amino acid threonine 68, an immunofluorescence-based “high content” analysis assay was used in HCT116 cells.
In vitro cell-based immunofluorescence assay for the identification of inhibitors of bleomycin-induced phosphorylation of CHK2 (phospho-Thr68) in the human colon carcinoma cell line HCT116:
HCT116 cells are sown out in a defined cell density in 384-well plates in culture medium (DMEM high glucose, 2 mM GlutaMax, 1 mM Na pyruvate, 10% FCS) and incubated overnight at 37° C. and 10% of CO2. […] After incubation for four hours at 37° C. and 10% of CO2, the cells are fixed (5 min, 4% formaldehyde in PBS), permeabilised (10 min, 0.2% Triton X-100 in PBS) and, after blocking of nonspecific binding sites (10% goat serum, 1% BSA in PBS), incubated overnight at 4° C. with a specific anti-pCHK2 antibody (cell signalling #2661). pCHK2 (Thr68) is determined using an Alexa488-labelled secondary anti-rabbit IgG antibody. […] The pCHK2 signal is detected using a high-content imager (Molecular Devices IMX Ultra) and automatic image analysis using the MetaXpress software belonging to the instrument. The number of cell nuclei which have a pCHK2 signal above a defined background is determined.

mTOR (human) = mTOR (human) (Homo sapiens (Human), UniProt P42345); experiment: mTOR (human) radiometric kinase assay; format: biochemical; conditions: ATM versus mTOR
Description: Furthermore, the effect, in particular inhibition, of other kinases and thus the selectivity of the compounds according to the invention can be determined with the aid of the following assay:
mTOR (human) was incubated with 50 mM HEPES pH 7.5, 1 mM EGTA, 0.01% Tween 20, 2 mg/ml of the substrate, 3 mM MnCl2 and [γ-^33P-ATP] (specific activity approximately 500 cpm/pmol, concentration as necessary). The reaction was initiated by addition of MgATP solution. After incubation at room temperature for 40 minutes, the reaction was stopped by addition of 3% phosphoric acid. 10 μl of the reaction solution were then transferred dropwise onto a P30 filtermat and washed three times for 5 min in 75 mM phosphoric acid and once in methanol, dried and evaluated by means of liquid scintillation counting.

PI3K p110β/p85α (human) = PI3K p110β/p85α (human) (Homo sapiens (Human), UniProt P42338); experiment: PI3K p110β/p85α (human), non-radioactive assay (HTRF); format: biochemical; conditions: ATM versus PI3Kbeta
Description: PI3K p110β/p85α (Human), Non-Radioactive Assay
(§1) PI3K p110β/p85α (human) was incubated in an assay buffer comprising 10 μM phosphatidylinositol 4,5-bisphosphate and MgATP (concentration as necessary). The reaction was initiated by addition of MgATP solution. After an incubation time of 30 min at room temperature, the reaction was stopped by addition of a solution consisting of EDTA and biotinylated phosphatidylinositol 3,4,5-trisphosphate. Finally, the detection buffer, consisting of a europium-labelled anti-GST monoclonal antibody, a GST-labelled GRP1 PH domain and streptavidin allophycocyanin, was added. The plate was read out via homogeneous time-resolved fluorescence (HTRF) and the corresponding signals were evaluated via the formula HTRF=10000×(Em665 nm/Em620 nm).

PI3K p110α/p85α (human) = PI3K p110α/p85α (human) (Homo sapiens (Human), UniProt P42336); experiment: PI3K p110α/p85α (human), non-radioactive assay (HTRF); format: biochemical; conditions: ATM versus PI3Kalpha
Description: PI3K p110α/p85α (Human), Non-Radioactive Assay
as §1, with “p110α/p85α” for “p110β/p85α”, “After” for “After an”, “incubation” for “incubation time of 30 min”, “temperature for 40 minutes,” for “temperature,”

PI3K p110δ/p85α (human) = PI3K p110δ/p85α (human) (Homo sapiens (Human), UniProt O00329); experiment: PI3K p110δ/p85α (human), non-radioactive assay (HTRF); format: biochemical; conditions: ATM versus PI3Kdelta
Description: PI3K p110δ/p85α (Human), Non-Radioactive Assay
as §1, with “p110δ/p85α” for “p110β/p85α”

PI3K (p120γ) (human) = PI3K (p120γ) (human) (Homo sapiens (Human), UniProt P48736); experiment: PI3K (p120γ) (human), non-radioactive assay (HTRF); format: biochemical; conditions: ATM versus PI3Kgamma
Description: PI3K (p120γ) (Human), Non-Radioactive Assay
as §1, with “(p120γ)” for “p110β/p85α”, “nm). • MgATP=magnesium 5′-O-[hydroxy({[(hydroxyphosphinato)oxy]phosphinato}oxy)phosphoryl]adenosine • MgCl2=magnesium dichloride • EGTA=ethylene glycol bis(aminoethyl ether) N,N,N′,N′-tetraacetic acid • Tween 20=polysorbate 20 Medicament/Pharmaceutical Composition” for “nm).”

PI3K p110β/p85α (human), sequence (P42338 whole entry): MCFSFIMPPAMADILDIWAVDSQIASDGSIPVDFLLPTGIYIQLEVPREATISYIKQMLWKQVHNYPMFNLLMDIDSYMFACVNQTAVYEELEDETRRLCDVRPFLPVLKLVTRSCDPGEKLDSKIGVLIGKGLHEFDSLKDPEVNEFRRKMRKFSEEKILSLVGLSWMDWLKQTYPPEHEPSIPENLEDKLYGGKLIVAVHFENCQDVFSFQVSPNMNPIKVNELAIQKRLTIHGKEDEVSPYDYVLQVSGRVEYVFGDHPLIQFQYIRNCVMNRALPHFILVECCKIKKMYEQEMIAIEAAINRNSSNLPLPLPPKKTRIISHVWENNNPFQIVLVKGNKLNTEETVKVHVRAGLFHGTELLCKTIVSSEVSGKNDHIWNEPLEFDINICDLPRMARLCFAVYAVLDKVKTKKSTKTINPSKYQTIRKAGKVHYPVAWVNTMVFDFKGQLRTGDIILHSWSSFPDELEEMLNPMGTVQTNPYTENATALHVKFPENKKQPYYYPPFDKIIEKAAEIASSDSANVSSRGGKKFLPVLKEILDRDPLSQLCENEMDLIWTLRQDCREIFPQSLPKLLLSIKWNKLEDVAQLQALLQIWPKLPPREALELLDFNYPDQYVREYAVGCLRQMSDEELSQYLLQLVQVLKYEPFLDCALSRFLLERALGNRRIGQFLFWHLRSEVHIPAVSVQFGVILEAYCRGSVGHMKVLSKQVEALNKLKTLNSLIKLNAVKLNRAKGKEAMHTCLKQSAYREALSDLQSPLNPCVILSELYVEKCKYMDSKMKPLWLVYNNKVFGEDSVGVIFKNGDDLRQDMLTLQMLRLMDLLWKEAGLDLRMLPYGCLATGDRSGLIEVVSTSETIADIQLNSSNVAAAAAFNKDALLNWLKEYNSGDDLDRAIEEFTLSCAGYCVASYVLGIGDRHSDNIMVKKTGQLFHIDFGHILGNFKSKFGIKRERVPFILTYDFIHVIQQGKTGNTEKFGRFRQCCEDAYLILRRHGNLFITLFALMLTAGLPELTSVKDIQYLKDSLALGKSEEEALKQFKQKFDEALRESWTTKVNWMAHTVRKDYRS
PI3K p110β/p85α (human), sequence (P27986 whole entry partner): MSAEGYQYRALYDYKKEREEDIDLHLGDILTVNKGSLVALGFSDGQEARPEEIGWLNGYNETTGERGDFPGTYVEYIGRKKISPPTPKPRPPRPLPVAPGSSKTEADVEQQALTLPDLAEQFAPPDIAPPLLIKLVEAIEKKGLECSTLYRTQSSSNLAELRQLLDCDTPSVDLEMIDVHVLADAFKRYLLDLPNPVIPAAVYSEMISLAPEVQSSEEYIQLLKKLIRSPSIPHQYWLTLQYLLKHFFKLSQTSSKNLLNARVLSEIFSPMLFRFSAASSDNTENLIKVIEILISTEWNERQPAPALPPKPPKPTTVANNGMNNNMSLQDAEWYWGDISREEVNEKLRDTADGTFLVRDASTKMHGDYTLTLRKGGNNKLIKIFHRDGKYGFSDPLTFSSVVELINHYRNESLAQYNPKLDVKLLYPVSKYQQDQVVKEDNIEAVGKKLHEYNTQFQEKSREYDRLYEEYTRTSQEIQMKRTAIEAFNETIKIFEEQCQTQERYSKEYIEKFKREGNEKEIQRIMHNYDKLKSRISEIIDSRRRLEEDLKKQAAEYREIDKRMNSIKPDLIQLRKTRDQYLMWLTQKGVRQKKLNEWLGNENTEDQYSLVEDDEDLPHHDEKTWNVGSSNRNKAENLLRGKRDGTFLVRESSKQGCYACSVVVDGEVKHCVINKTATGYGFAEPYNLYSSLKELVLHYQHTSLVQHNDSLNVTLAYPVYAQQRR
PI3K (p120γ) (human), sequence (P48736 whole entry): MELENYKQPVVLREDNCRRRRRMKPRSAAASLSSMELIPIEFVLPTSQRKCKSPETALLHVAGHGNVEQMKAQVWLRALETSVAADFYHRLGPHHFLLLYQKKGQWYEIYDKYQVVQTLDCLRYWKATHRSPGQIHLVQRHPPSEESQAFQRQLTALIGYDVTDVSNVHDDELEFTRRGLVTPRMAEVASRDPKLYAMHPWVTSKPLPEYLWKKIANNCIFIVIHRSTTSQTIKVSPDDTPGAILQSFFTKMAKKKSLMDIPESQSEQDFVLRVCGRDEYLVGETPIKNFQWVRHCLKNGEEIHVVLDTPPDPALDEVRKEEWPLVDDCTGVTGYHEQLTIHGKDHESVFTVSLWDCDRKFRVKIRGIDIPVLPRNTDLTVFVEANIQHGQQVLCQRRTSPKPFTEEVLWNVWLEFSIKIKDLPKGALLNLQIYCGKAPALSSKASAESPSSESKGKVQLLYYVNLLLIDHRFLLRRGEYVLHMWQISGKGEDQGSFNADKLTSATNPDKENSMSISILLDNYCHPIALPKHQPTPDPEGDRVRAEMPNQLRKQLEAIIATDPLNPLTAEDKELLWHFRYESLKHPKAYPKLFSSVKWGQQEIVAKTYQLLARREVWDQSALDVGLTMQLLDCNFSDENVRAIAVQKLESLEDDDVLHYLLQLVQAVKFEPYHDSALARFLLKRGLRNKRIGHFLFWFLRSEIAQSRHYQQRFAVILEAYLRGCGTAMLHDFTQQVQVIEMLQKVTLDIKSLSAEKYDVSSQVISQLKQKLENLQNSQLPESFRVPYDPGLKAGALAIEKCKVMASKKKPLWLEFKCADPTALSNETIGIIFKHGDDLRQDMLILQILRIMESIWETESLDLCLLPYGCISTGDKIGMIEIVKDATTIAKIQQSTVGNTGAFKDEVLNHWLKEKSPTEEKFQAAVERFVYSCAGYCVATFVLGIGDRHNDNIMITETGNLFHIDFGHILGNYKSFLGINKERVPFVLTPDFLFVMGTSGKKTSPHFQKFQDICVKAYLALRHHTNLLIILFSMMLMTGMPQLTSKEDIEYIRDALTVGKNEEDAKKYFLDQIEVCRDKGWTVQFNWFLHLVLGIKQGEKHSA
PI3K p110α/p85α (human), sequence (P42336 whole entry): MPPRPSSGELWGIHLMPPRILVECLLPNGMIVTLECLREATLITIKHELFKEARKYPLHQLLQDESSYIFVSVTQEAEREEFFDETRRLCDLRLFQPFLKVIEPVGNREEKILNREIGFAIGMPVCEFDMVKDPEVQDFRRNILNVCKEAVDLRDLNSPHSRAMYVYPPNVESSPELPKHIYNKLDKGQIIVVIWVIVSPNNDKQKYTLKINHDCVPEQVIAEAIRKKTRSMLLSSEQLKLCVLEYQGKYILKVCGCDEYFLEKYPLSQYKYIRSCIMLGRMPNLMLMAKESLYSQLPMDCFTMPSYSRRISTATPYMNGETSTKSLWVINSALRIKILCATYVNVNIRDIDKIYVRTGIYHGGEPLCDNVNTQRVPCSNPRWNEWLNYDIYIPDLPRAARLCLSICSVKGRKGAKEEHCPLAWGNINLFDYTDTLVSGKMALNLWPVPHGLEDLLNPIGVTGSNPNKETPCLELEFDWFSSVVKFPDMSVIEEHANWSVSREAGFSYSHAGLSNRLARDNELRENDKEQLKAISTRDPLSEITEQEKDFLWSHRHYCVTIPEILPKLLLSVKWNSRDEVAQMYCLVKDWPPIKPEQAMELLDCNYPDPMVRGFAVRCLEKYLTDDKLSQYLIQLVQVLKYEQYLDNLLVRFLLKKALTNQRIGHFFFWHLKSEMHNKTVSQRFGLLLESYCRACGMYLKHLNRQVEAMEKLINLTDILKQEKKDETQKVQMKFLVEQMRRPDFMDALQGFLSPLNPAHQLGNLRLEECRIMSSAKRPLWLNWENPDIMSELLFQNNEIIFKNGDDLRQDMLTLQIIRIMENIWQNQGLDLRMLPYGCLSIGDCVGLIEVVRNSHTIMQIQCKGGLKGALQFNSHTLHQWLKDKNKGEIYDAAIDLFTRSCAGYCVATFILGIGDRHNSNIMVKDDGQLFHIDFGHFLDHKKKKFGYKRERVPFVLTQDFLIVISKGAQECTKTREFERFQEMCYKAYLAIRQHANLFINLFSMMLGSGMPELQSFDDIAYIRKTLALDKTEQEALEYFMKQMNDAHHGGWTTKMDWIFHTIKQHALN
PI3K p110α/p85α (human), sequence (P27986 whole entry partner): as the sequence (P27986 whole entry partner) above
PI3K p110δ/p85α (human), sequence (O00329 whole entry): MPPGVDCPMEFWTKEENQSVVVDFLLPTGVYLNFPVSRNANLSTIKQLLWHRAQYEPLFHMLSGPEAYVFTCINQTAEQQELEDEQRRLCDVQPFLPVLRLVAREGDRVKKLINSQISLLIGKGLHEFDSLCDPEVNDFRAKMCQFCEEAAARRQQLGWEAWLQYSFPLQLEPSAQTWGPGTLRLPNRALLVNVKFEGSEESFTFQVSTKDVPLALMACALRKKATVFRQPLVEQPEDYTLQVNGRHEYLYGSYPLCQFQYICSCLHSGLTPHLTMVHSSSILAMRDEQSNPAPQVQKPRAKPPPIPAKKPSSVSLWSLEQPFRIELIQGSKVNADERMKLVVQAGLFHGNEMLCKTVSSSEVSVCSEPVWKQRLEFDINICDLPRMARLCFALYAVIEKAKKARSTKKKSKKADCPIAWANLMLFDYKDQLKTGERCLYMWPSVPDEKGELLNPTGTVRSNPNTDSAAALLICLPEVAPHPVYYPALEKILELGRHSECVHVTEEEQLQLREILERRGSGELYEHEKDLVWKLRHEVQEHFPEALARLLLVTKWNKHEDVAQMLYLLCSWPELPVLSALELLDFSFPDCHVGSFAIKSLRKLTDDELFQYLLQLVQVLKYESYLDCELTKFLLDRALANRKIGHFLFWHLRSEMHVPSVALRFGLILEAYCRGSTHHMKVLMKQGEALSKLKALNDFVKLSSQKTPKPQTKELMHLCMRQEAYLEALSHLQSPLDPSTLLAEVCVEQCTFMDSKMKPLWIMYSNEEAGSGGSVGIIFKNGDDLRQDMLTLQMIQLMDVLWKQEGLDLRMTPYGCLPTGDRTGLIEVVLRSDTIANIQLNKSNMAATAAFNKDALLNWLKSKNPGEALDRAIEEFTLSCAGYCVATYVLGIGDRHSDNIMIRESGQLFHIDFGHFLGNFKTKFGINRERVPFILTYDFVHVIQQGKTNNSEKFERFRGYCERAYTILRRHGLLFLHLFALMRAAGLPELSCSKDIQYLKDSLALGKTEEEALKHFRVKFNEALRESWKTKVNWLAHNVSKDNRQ
PI3K p110δ/p85α (human), sequence (P27986 whole entry partner): as the sequence (P27986 whole entry partner) above

ratio of IC50 (ATM) and IC50 (PI3Kalpha), selectivity with respect to PI3Kalpha (PI3K p110α/p85α (human)) | Compound | IC50 [1] | IC50 [2] | ratio IC50 (ATM):IC50 (mTOR), selectivity with respect to mTOR (mTOR (human)) | ratio IC50 (ATM):IC50 (PI3Kbeta), selectivity with respect to PI3Kbeta (PI3K p110β/p85α (human)) | ratio of IC50 (ATM) and IC50 (PI3Kdelta), selectivity with respect to PI3Kdelta (PI3K p110δ/p85α (human)) | ratio of IC50 (ATM) and IC50 (PI3Kgamma), selectivity with respect to PI3Kgamma (PI3K (p120γ) (human))
– | 1-(3,5-Dimethyl-1H-pyrazol- 4-yl)-7-methoxy-3-methyl-8- (1-methyl-1H-pyrazol-4-yl)- 1,3-dihydroimidazo[4,5-c]- quinolin-2-one [Example 118] | < 10 nM | 200 to 1000 nM | at least 2000 times | at least 2000 times | – | –
at least 2000 times | COc1cc2ncc3[nH]c(=O)n(-c4ncc(F)cc4F)c3c2cc1-c1cn(C)nc1C [Example 108, 1-(3,5-Difluoropyridin-2-yl)-8-(1,3-dimethyl-1H-pyrazol-4-yl)-7-methoxy-1,3-dihydroimidazo[4,5-c]-quinolin-2-one] | – | – | – | at least 2000 times | at least 2000 times | at least 2000 times
at least 2000 times | CCc1cncc(F)c1-n1c(=O)n(C)c2cnc3cc(OC)c(-c4cn[nH]n4)cc3c21 [Example 125, 1-(3-Ethyl-5-fluoropyridin-4-yl)-7-methoxy-3-methyl-8-(2H-1,2,3-triazol-4-yl)-1,3-dihydroimidazo[4,5-c] quinolin-2-one] | – | – | at least 2000 times | at least 2000 times | at least 2000 times | at least 2000 times
– | COc1cc2ncc3c(c2cc1-c1ccc2nc(C)[nH]c2c1)n(-c1c(F)cncc1OC)c(=O)n3C [Example 136, 1-(3-Fluoro-5-methoxy-pyridin-4-yl)-7-methoxy-3-methyl-8-(2-methyl-3H-benzoimidazol-5-yl)-1,3-dihydroimidazo[4,5-c]-quinolin-2-one] | – | – | at least 2000 times | at least 2000 times | – | at least 2000 times
– | [2H]C([2H])([2H])Oc1cncc(F)c1-n1c(=O)n(C)c2cnc3cc(OC)c(-c4cnn(C)c4)cc3c21 [Example 145, 1-[3-Fluoro-5-(trideuterio-methoxy)-4-pyridyl]-7-methoxy-3-methyl-8-(1-methylpyrazol-4-yl)imidazo-[4,5-c]quinolin-2-one] | – | – | at least 2000 times | at least 2000 times | at least 2000 times | at least 2000 times
– | COc1ccc(-c2cc3c(cc2OC)ncc2c3n(-c3cn(C)nc3F)c(=O)n2C)cn1 [Example 159, 1-(3-Fluoro-1-methyl-1H-pyrazo1-4-yl)-7-methoxy-8-(6-methoxypyridin-3-yl)-3-methyl-1,3-dihydroimidazo-[4,5-c]quinolin-2-one] | – | – | at least 2000 times | at least 2000 times | – | –

Compound | ratio of IC50 (ATM) and IC50 (PI3Kalpha), selectivity with respect to PI3Kalpha (PI3K p110α/p85α (human)) | IC50 [1] | IC50 [2] | ratio IC50 (ATM):IC50 (mTOR), selectivity with respect to mTOR (mTOR (human)) | ratio IC50 (ATM):IC50 (PI3Kbeta), selectivity with respect to PI3Kbeta (PI3K p110β/p85α (human)) | ratio of IC50 (ATM) and IC50 (PI3Kdelta), selectivity with respect to PI3Kdelta (PI3K p110δ/p85α (human)) | ratio of IC50 (ATM) and IC50 (PI3Kgamma), selectivity with respect to PI3Kgamma (PI3K (p120γ) (human))
COc1cc2ncc3c(c2cc1-c1cnn(C)c1)n(-c1ncc(OCS(C)(=O)=O)cc1F)c(=O)n3C [Example 201, 1-(3-Fluoro-5-methyl-sulfonylmethoxypyridin-2-yl)-7-methoxy-3-methyl-8-(1-methyl-1H-pyrazol-4-yl)-1,3-dihydroimidazo[4,5-c]-quinolin-2-one] | at least 2000 times | – | – | at least 2000 times | at least 2000 times | at least 2000 times | at least 2000 times
